According to PubChem BioAssay AID1259407 (Chemical Carcinogenesis Research Information System (CCRIS), 2018):
The source made the active and inactive calls. The rule behind the calls is not given here.

Tested on: CCRIS mutagenicity, Ames/micronucleus/aberration tests
Test: CCRIS mutagenicity studies

SMILES: Nc1cccc(N)c1
- mutagenic call (End Point: IN VITRO CHROMOSOMAL ABERRATIONS, Test System: CHINESE HAMSTER LUNG CELLS (CHL), Metabolic Activation: RAT, LIVER, S-9, KC-400): active; positive (structural changes)
- mutagenic call (End Point: IN VITRO CHROMOSOMAL ABERRATIONS, Test System: CHINESE HAMSTER OVARY CELLS (CHO), Metabolic Activation: NONE): active; positive (structural changes)
- mutagenic call (End Point: IN VITRO CHROMOSOMAL ABERRATIONS, Test System: CHINESE HAMSTER OVARY CELLS (CHO), Metabolic Activation: RAT, LIVER, S-9, AROCLOR 1254): inactive; negative
- mutagenic call (End Point: IN VITRO CHROMOSOMAL ABERRATIONS, Test System: CHL CELLS, Metabolic Activation: NONE): active; positive (structural changes)
- mutagenic call (End Point: IN VITRO CHROMOSOMAL ABERRATIONS, Test System: CHL CELLS, Metabolic Activation: RAT, LIVER, S-9, SODIUM PHENOBARBITAL AND 5,6-BENZOFLAVONE): active; positive (structural changes)
- mutagenic call (End Point: IN VITRO CHROMOSOMAL ABERRATIONS, Test System: CHL/IU CELLS, Metabolic Activation: NONE): active; positive (ploidy changes)
- mutagenic call (End Point: IN VITRO MICRONUCLEUS, Test System: CHL/IU CELLS, Metabolic Activation: NONE): active; positive
- mutagenic call (Test System: AMES SALMONELLA TYPHIMURIUM, Strain/Indicator: TA97, Metabolic Activation: HAMSTER, LIVER, S-9, AROCLOR 1254 (10%), Method: PREINCUBATION): active; positive
- mutagenic call (Test System: AMES SALMONELLA TYPHIMURIUM, Strain/Indicator: TA97, Metabolic Activation: NONE, Method: PREINCUBATION): inactive; negative
- mutagenic call (Test System: AMES SALMONELLA TYPHIMURIUM, Strain/Indicator: TA97, Metabolic Activation: RAT, LIVER, S-9, AROCLOR 1254 (4 OR 10%), Method: STANDARD PLATE): active; positive
- mutagenic call (Test System: AMES SALMONELLA TYPHIMURIUM, Strain/Indicator: TA97, Metabolic Activation: RAT, LIVER, S-9, AROCLOR 1254 (10%), Method: PREINCUBATION): active; positive
- mutagenic call (Test System: AMES SALMONELLA TYPHIMURIUM, Strain/Indicator: TA98(1,8-DNP6), Metabolic Activation: TOBACCO, TX1 CELLS, Method: PREINCUBATION): inactive; negative
- mutagenic call (Test System: AMES SALMONELLA TYPHIMURIUM, Strain/Indicator: TA98, Metabolic Activation: HAMSTER, LIVER, S-9, AROCLOR 1254 (10%), Method: PREINCUBATION): active; positive
- mutagenic call (Test System: AMES SALMONELLA TYPHIMURIUM, Strain/Indicator: TA98, Metabolic Activation: PEA APICAL BUD S-9, Method: PREINCUBATION): active; positive
- mutagenic call (Test System: AMES SALMONELLA TYPHIMURIUM, Strain/Indicator: TA98, Metabolic Activation: PEA APICAL BUD S-9, Method: STANDARD PLATE): active; positive
- mutagenic call (Test System: AMES SALMONELLA TYPHIMURIUM, Strain/Indicator: TA98, Metabolic Activation: PLANT (PERSEA AMERICANA) S-117, Method: STANDARD PLATE): active; positive
- mutagenic call (Test System: AMES SALMONELLA TYPHIMURIUM, Strain/Indicator: TA98, Metabolic Activation: PLANT (ZEA MAYS) S-9, Method: STANDARD PLATE): active; positive
- mutagenic call (Test System: AMES SALMONELLA TYPHIMURIUM, Strain/Indicator: TA98, Metabolic Activation: RAT, BLADDER, S-9, PCB, Method: FLUCTUATION TEST): active; positive
- mutagenic call (Test System: AMES SALMONELLA TYPHIMURIUM, Strain/Indicator: TA98, Metabolic Activation: RAT, LIVER, S-9, AROCLOR 1254 (10%), Method: PREINCUBATION): active; positive
- mutagenic call (Test System: AMES SALMONELLA TYPHIMURIUM, Strain/Indicator: TA98, Metabolic Activation: RAT, LIVER, S-9, AROCLOR 1254, Method: PREINCUBATION): active; positive
- mutagenic call (Test System: AMES SALMONELLA TYPHIMURIUM, Strain/Indicator: TA98, Metabolic Activation: RAT, LIVER, S-9, AROCLOR 1254, Method: STANDARD PLATE): active; positive
- mutagenic call (Test System: AMES SALMONELLA TYPHIMURIUM, Strain/Indicator: TA98, Metabolic Activation: RAT, LIVER, S-9, PCB, Method: PREINCUBATION): active; positive
- mutagenic call (Test System: AMES SALMONELLA TYPHIMURIUM, Strain/Indicator: TA98, Metabolic Activation: RAT, LIVER, S-9, PHENOBARBITAL AND 5,6-BENZOFLAVONE, Method: PREINCUBATION): active; positive
- mutagenic call (Test System: AMES SALMONELLA TYPHIMURIUM, Strain/Indicator: TA98, Metabolic Activation: S-9, Method: PREINCUBATION): active; positive
- mutagenic call (Test System: AMES SALMONELLA TYPHIMURIUM, Strain/Indicator: TA98, Metabolic Activation: TOBACCO, TX1 CELLS, Method: PREINCUBATION): active; positive
- mutagenic call (Test System: AMES SALMONELLA TYPHIMURIUM, Strain/Indicator: TA100, Metabolic Activation: HAMSTER, LIVER, S-9, AROCLOR 1254 (10%), Method: PREINCUBATION): active; positive
- mutagenic call (Test System: AMES SALMONELLA TYPHIMURIUM, Strain/Indicator: TA100, Metabolic Activation: NONE, Method: STANDARD PLATE): inactive; negative
- mutagenic call (Test System: AMES SALMONELLA TYPHIMURIUM, Strain/Indicator: TA100, Metabolic Activation: PEA APICAL BUD S-9, Method: PREINCUBATION): inactive; negative
- mutagenic call (Test System: AMES SALMONELLA TYPHIMURIUM, Strain/Indicator: TA100, Metabolic Activation: PEA APICAL BUD S-9, Method: STANDARD PLATE): inactive; negative
- mutagenic call (Test System: AMES SALMONELLA TYPHIMURIUM, Strain/Indicator: TA100, Metabolic Activation: RAT, BLADDER, S-9, PCB, Method: FLUCTUATION TEST): active; positive
- mutagenic call (Test System: AMES SALMONELLA TYPHIMURIUM, Strain/Indicator: TA100, Metabolic Activation: RAT, LIVER, S-9, AROCLOR 1254 (10%), Method: PREINCUBATION): active; positive
- mutagenic call (Test System: AMES SALMONELLA TYPHIMURIUM, Strain/Indicator: TA100, Metabolic Activation: RAT, LIVER, S-9, AROCLOR 1254, Method: PREINCUBATION): active; positive
- mutagenic call (Test System: AMES SALMONELLA TYPHIMURIUM, Strain/Indicator: TA100, Metabolic Activation: RAT, LIVER, S-9, PCB, Method: PREINCUBATION): active; positive
